The values below come from US11413278B2, “Compounds and methods for promoting stress resistance” (priority 2015, dated 2022).

The test system of data set [1] is PC12 cells expressing poly(Q)103-Htt-EGFP. Nature of the data set: Poly(Q) toxicity & viability analysis (cellular model of Huntington's disease). It counts as cell-based, rat. Particulars: for M = Huntington's poly-Q toxicity attenuation: score; for K = Huntington's poly-Q toxicity attenuation: summary score. Summed up: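 Readout is CellTiter-Glo ATP content measured after 48 hrs. Cells are a PC12 line stably expressing inducible poly(Q)103-Htt-EGFP, where induction produces toxic aggregates.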

A further data set relates to FOXO3. Nature of the data set: FOXO3 siRNA knockdown: dependency for H2O2-resistance. It counts as cell-based, human. The method, then: For qPCR analysis, WI-38 cells were treated with small molecules (at 10 μM) (biological quadruplicates) for 24 hrs and processed for RNA isolation and reverse transcription (RT) with the Cells-to-Ct Kit (Life Technologies), following manufacturer's instructions. RT products were diluted with H2O and used for qPCR analysis on an ABI 7300 system (Life Technologies) (technical triplicates). Relative expression levels of target genes were normalized to the genes B2M, PPIA and GAPDH. To knock down the expression of FOXO3 or NRF2, WI-38 cells were transfected, using the RNAiMAX reagents (Life Technologies), with siRNA oligos (at 10 nM final concentration, 10 ml culture medium) for FOXO3 (Life Technologies) or NRF2 (Integrated DNA Technologies) on 10-cm petri dishes for 36 hrs, and then detached and aliquoted onto 96-well (for qPCR analysis) or 384-well plates (for H2O2-stress treatment). ˜24 hrs later, small molecules were introduced and incubated with cells for 24 hrs. Cells were then either processed with the Cells-to-Ct Kit to prepare RT products for qPCR analysis or subjected to H2O2 (700 μM) for 3 hrs and assayed for viability. The knockdown efficiency of FOXO3 or NRF2 was checked at 36 hrs post-transfection and at the end as well. […]
Applicants used siRNA to knock down FOXO3 expression by ˜70% in an attempt to identify whether the activation of these genes depends on activity of FOXO3 and/or NRF2. […] We used siRNA to knock down FOXO3 expression by ˜60% to 70% (FIG. 3; see data in Table 6). […] (Given the caveat that FOXO3 was not fully knocked down, partial dependency was scored when the H2O2-resistance capacity was reduced by at least 25% but less than 50% upon siRNA knockdown). At least for Gr-7A and Gr-7C, which are structurally related, the observed FOXO3-dependency for H2O2-resistance is consistent with their strong effects to induce FOXO3 target genes (Tables 1a-1f, Table 6, & Table 15), including SOD2 and GADD45A.

The test system of data set [2] is phosphorylated γH2A.X and TP53BP1. Nature of the data set: DNA damage marker analysis (immuno-staining). Particulars: for activity at 10 µM: Homo sapiens, WI-38, 24 h. Summed up: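 Immunofluorescence read-out for phospho-γH2A.X (Ser-139) and phospho-TP53BP1 (Ser-1778), with DAPI nuclear stain and automated imaging at 10×. WI-38 cells (~8,000 per well) were exposed to small molecules for 24 h after 24 h of culture, with doxorubicin (300 nM, 24 h) or H2O2 (700 μM, 3 h) as positive damage controls.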

Another data set has as its system C. elegans. The experiment in a line: C. elegans lifespan assays (liquid and plate). The class given is in vivo, Caenorhabditis elegans. Particulars: for ILS at 60 µM / ILS at 66 µM: Caenorhabditis elegans; for Extension of C. elegans' lifespan (qualitative): in at least 3 to 4 trials, group range ~10% to ~50%; for O = Life span- extending scores in worms: score scale 0 to 2, 4 to 6 independent trials; for M = Lifespan-extending scores in worms: summary score.

Setting [3] is: read-out: Experiment 1, H2A.X-P DNA damage foci staining (no H2O2 stress treatment), at 10 uM.
Where [4] appears, read: read-out: Experiment 2, H2A.X-P DNA damage foci staining (no H2O2 stress treatment), at 10 uM.
[5] abbreviates: read-out: Experiment 2, H2A.X-P DNA damage foci staining (under H2O2 stress treatment), at 10 uM.
Setting [6] is: read-out: Experiment 2, TP53BP1-P DNA damage foci staining (no H2O2 stress treatment), at 10 uM.
The mark [7] stands for this setting: read-out: Experiment 2, TP53BP1-P DNA damage foci staining (under H2O2 stress treatment), at 10 uM.
Where [8] appears, read: 60 μM, in liquid, wild type, with FuDR, 1.0 × 10^9 bacteria/ml, read-out: relative change of mean lifespan vs control, Trial 1.
[9] abbreviates: 60 μM, in liquid, wild type, with FuDR, 2.5 × 10^9 bacteria/ml, read-out: relative change of mean lifespan vs control, Trial 2.
The mark [10] stands for this setting: 60 μM, on plate, CF512 temperature-sensitive sterile animals, without FuDR, 2.0 × 10^10 bacteria/ml, read-out: relative change of mean lifespan vs control, Trial 3.
The mark [11] stands for this setting: Assay 2(z), 1.0 × 10^9 bacteria/ml, wild type + FuDR (2012 July), read-out: Lifespan assay in liquid.
[12] abbreviates: Assay 3(aa), 2.5 × 10^9 bacteria/ml, wild type + FuDR, read-out: Lifespan assay in liquid.
Setting [13] is: Assay 4(ab), 2.0 × 10^10 bacteria/ml, CF512 worms, no FuDR, read-out: Lifespan assay on plates.
The mark [14] stands for this setting: negative point, cultured human cells.

Like-named read-outs stand apart in the source and are kept apart here.

On to `Cc1ccc(S(=O)(=O)Nc2cccc3cccnc23)cc1` [Gr-3B], for which the “M = Huntington's poly-Q toxicity attenuation” value in data set [1] turned out to be 0. Further, in data set [1], the “K = Huntington's poly-Q toxicity attenuation” value worked out at 0. The “I = FOXO3-dependency for H2O2-resistance” value with FOXO3 (score) and with FOXO3 (summary score) was 0 each time. Besides, the activity at 10 µM came to 81.9% in data set [2] (setting [3]); 228% in data set [2] (setting [4]); 130% in data set [2] (setting [5]); 244% in data set [2] (setting [6]); 66.3% in data set [2] (setting [7]). The “P = Potential DNA-damaging” value in data set [2] (human, 24 h) came out at 0. For the same compound, in data set [2] (human, 24 h), the “R = Potential DNA damaging” value is reported as 0. The ILS at 60 µM in the data set with C. elegans (setting [8]) is 13.7%; in the data set with C. elegans (setting [9]), 12.5%; in the data set with C. elegans (setting [10]), 8.1%. Further, the ILS at 66 µM worked out at 13.7% in the data set on C. elegans (setting [11]), 12.5% with C. elegans (setting [12]) and 8.1% in the data set with C. elegans (setting [13]). The “Extension of C. elegans' lifespan (qualitative)” value in the data set with C. elegans is reported as “could extend animal's lifespan”. In addition, the “O = Life span- extending scores in worms” value in the data set on C. elegans is reported as 2 (2 for observed in more than 2 trials). Besides, in the data set on C. elegans, the “M = Lifespan-extending scores in worms” value was 2 (2 for observed in more than 2 trials).

As for `Nc1ccccc1S(=O)(=O)Nc1cccc2cccnc12` [Gr-3C], in data set [1], the “M = Huntington's poly-Q toxicity attenuation” value was 0. In addition, the “K = Huntington's poly-Q toxicity attenuation” value in data set [1] was 0. Also, the “I = FOXO3-dependency for H2O2-resistance” value in the data set with FOXO3 (score) and in the data set on FOXO3 (summary score) was 0 in each case. In addition, the activity at 10 µM in data set [2] (setting [3]) was 113%; in data set [2] (setting [4]) it was 404%; in data set [2] (setting [5]), 136%; in data set [2] (setting [6]), 254%; in data set [2] (setting [7]), 390%. Further, in data set [2] (human, 24 h), the “P = Potential DNA-damaging” value amounted to 1. Further, the “R = Potential DNA damaging” value in data set [2] (human, 24 h) worked out at 1. Besides, the ILS at 66 µM in the data set with C. elegans (setting [11]) worked out at 18.9%; in the data set with C. elegans (setting [12]), 11.9%; in the data set on C. elegans (setting [13]) it was 8%. Further, the ILS at 60 µM stood at 18.9% in the data set on C. elegans (read-out: relative change of mean lifespan vs control, Trial 1); 11.9% with C. elegans (read-out: relative change of mean lifespan vs control, Trial 2); 8% in the data set with C. elegans (read-out: relative change of mean lifespan vs control, Trial 3). Moreover, the “Extension of C. elegans' lifespan (qualitative)” value in the data set on C. elegans is “could extend animal's lifespan”. In the data set on C. elegans, the “O = Life span- extending scores in worms” value is 2 (2 for observed in more than 2 trials). Moreover, the “M = Lifespan-extending scores in worms” value in the data set with C. elegans is 2 (2 for observed in more than 2 trials).

With `COc1ccc(C(=O)/C=C/c2ccc(F)cc2)c(OC)c1` [Gr-4A], the “M = Huntington's poly-Q toxicity attenuation” value in data set [1] was 0. In addition, the “K = Huntington's poly-Q toxicity attenuation” value in data set [1] is given as 0. Also, the “I = FOXO3-dependency for H2O2-resistance” value with FOXO3 (score) and in the data set on FOXO3 (summary score) was 0 each time. In addition, the activity at 10 µM in data set [2] (setting [3]) amounted to 80.2%; in data set [2] (setting [4]) it was 75%; in data set [2] (setting [5]) it was 105%; in data set [2] (setting [6]), 155%; in data set [2] (setting [7]) it was 287%. Moreover, the “R = Potential DNA damaging” value in data set [2] (setting [14]) came to 0. Further, the “P = Potential DNA-damaging” value in data set [2] (summary score) is 0. Besides, the ILS at 60 µM in the data set on C. elegans (setting [8]) is -21.4%; in the data set with C. elegans (setting [9]) it was 1.2%; with C. elegans (setting [10]), -0.1%. Besides, the figures for the ILS at 66 µM with C. elegans (setting [11]), in the data set with C. elegans (setting [12]) and in the data set with C. elegans (setting [13]) were -21.4%, 1.2% and -0.1%, respectively. Besides, in the data set on C. elegans, the “O = Life span- extending scores in worms” value is on record as 0. Further, in the data set on C. elegans, the “M = Lifespan-extending scores in worms” value is reported as 0.

Take `COc1ccc(C(=O)/C=C/c2ccccc2Br)c(OC)c1` [Gr-4B]: the “M = Huntington's poly-Q toxicity attenuation” value in data set [1] is listed as 0. Moreover, the “K = Huntington's poly-Q toxicity attenuation” value in data set [1] is 0. The “I = FOXO3-dependency for H2O2-resistance” value in the data set with FOXO3 (score) and in the data set with FOXO3 (summary score) was 0 throughout. In addition, the activity at 10 µM worked out at 116% in data set [2] (setting [3]); 140% in data set [2] (setting [4]); 150% in data set [2] (setting [5]); 118% in data set [2] (setting [6]); 435% in data set [2] (setting [7]). Moreover, the “R = Potential DNA damaging” value in data set [2] (setting [14]) stood at 0. Moreover, the “P = Potential DNA-damaging” value in data set [2] (summary score) worked out at 0. Besides, the ILS at 60 µM in the data set with C. elegans (setting [8]) worked out at 8.1%; in the data set with C. elegans (setting [9]), 14.5%; in the data set on C. elegans (setting [10]) it was 10.7%. The ILS at 66 µM in the data set with C. elegans (setting [11]) worked out at 8.1%; in the data set on C. elegans (setting [12]) it was 14.5%; in the data set with C. elegans (setting [13]) it was 10.7%. The “O = Life span- extending scores in worms” value in the data set on C. elegans is recorded as 1 (1 for lifespan extension observed in 2 trials). The “M = Lifespan-extending scores in worms” value in the data set on C. elegans is recorded as 1 (1 for lifespan extension observed in 2 trials).

Consider `COc1ccc(C(=O)/C=C/c2cccc(Cl)c2)c(OC)c1` [Gr-4C], for which, in data set [1], the “M = Huntington's poly-Q toxicity attenuation” value is reported as 0. Also, the “K = Huntington's poly-Q toxicity attenuation” value in data set [1] was determined as 0. Further, the “I = FOXO3-dependency for H2O2-resistance” value in the data set with FOXO3 (score) and in the data set with FOXO3 (summary score) was 0 in each case. The activity at 10 µM in data set [2] (setting [3]) was determined as 108%; in data set [2] (setting [4]), 135%; in data set [2] (setting [5]), 150%; in data set [2] (setting [6]) it was 179%; in data set [2] (setting [7]), 444%. Besides, the “R = Potential DNA damaging” value in data set [2] (setting [14]) was found to be 0. Also, the “P = Potential DNA-damaging” value in data set [2] (summary score) is given as 0. For the same compound, the ILS at 60 µM was -14.9% in the data set on C. elegans (setting [8]), 3.1% in the data set on C. elegans (setting [9]) and -1.7% in the data set with C. elegans (setting [10]). Further, the ILS at 66 µM is -14.9% in the data set on C. elegans (setting [11]), 3.1% with C. elegans (setting [12]) and -1.7% in the data set on C. elegans (setting [13]). Moreover, the “O = Life span- extending scores in worms” value in the data set on C. elegans was 0. Besides, the “M = Lifespan-extending scores in worms” value with C. elegans turned out to be 0.
